According to ChEMBL document CHEMBL1201862, “PubChem BioAssay data set” (2004):
Calls of active or inactive are those of the source.

How the values were obtained:
[1] = biological target: T1, Protein skinhead-1 (Caenorhabditis elegans, UniProt P34707); format: functional
T1 sequence (P34707 whole entry): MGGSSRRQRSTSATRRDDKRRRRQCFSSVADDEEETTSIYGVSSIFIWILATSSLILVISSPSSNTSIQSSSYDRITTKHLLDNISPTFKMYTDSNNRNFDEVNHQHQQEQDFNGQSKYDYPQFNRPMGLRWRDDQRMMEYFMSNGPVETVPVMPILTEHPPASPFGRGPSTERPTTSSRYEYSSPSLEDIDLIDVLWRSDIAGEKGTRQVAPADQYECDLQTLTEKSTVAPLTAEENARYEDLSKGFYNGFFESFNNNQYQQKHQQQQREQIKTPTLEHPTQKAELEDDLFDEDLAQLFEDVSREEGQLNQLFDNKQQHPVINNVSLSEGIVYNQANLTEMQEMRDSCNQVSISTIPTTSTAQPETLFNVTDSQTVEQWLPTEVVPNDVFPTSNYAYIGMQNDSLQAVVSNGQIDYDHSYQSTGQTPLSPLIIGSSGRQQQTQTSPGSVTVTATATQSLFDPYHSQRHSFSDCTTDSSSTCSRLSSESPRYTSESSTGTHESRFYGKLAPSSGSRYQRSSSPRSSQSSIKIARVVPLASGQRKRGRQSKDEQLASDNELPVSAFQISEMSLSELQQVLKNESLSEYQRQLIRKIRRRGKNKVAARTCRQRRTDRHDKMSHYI

[2] = Luminescence Cell-Based Dose Response HTS to Identify Activators of Luciferase Translation or Activity in H4 […] Cells. [Related pubchem assays: 1829 (Project Summary), 1814 (Primary HTS)]; format: functional
[3] = system: H4; test: Luminescence Cell-Based Dose Response HTS to Identify Activators of 5'UTR Stem-Loop Driven Prion Protein mRNA Translation in H4 Neuroglioblastoma Cells. [Related pubchem assays: 1829 (Project Summary), 1814 (Primary HTS)]; format: functional; conditions: Homo sapiens
[4] = biological target: FAD-linked sulfhydryl oxidase ALR (Homo sapiens, UniProt P55789); test: inhibitors of human ALR sulfhydryl oxidase, dose response, biochemical, H2O2 detection, luminescence, cherry-pick (AID 493248)
FAD-linked sulfhydryl oxidase ALR, sequence (P55789 whole entry): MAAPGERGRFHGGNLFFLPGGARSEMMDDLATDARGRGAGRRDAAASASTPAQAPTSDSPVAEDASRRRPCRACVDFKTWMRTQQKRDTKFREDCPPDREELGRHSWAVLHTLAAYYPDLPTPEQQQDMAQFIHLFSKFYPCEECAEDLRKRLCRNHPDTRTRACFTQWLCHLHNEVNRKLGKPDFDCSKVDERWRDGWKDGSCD

[5] = cells; format: functional
[6] = HEp-2 cell cytotoxicity, dose response, cytotoxicity control for RSV inhibitor project, HTS (AID 2410); format: functional; conditions: human respiratory syncytial virus
[7] = Luminescence Cell-Based Dose Retest to Confirm Inhibitors of Cancer Stem Cells. [Related pubchem assays (depositor defined):AID2717, AID2721]; format: functional; conditions: Homo sapiens
[8] = biological target: Cytochrome P450 2C9 (Homo sapiens, UniProt P11712)
Cytochrome P450 2C9, sequence (P11712 whole entry): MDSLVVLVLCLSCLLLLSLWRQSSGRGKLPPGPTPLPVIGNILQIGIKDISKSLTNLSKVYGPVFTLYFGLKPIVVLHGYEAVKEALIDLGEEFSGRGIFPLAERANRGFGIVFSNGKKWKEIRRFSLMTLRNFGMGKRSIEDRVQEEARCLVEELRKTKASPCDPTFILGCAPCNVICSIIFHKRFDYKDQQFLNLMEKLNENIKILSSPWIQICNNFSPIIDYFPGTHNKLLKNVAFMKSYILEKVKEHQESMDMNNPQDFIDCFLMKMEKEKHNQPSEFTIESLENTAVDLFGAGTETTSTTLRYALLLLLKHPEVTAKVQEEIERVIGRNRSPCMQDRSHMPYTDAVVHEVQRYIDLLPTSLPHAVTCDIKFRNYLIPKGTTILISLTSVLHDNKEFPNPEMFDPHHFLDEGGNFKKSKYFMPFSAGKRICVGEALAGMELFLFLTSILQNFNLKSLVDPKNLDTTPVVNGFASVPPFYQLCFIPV

[9] = biological target: Large T antigen (Simian virus 40, UniProt P03070); format: functional, Betapolyomavirus macacae;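 note: Confirmatory-stage PubChem screen for compounds that inhibit SV40 T antigen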
Large T antigen, sequence (P03070 whole entry): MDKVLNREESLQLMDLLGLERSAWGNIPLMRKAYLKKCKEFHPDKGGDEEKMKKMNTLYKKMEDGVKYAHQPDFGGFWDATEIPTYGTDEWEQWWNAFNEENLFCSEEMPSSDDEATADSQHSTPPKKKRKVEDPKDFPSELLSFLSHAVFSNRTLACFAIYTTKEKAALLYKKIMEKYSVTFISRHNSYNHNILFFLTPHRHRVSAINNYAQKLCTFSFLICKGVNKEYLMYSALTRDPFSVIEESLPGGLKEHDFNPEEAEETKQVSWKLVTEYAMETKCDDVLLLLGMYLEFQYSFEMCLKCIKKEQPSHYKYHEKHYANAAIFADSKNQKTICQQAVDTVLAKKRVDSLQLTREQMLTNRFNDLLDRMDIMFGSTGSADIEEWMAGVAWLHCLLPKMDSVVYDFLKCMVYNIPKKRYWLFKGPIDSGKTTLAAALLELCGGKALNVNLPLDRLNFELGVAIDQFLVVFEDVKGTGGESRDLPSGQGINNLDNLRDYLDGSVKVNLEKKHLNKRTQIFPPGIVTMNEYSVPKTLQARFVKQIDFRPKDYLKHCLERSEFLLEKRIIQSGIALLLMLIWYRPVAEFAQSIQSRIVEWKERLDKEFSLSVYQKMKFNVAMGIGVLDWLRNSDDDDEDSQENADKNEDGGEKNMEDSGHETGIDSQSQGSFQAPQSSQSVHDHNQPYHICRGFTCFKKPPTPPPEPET

[10] = biological target: T2, Microphthalmia-associated transcription factor (Homo sapiens, UniProt O75030); test: TRPM1 promoter luciferase signal decrease, dose response, MITF inhibitor project, cell-based, SK-MEL-5, cherry-picked, set 3 (AID 493073); format: functional
T2 sequence (O75030 whole entry): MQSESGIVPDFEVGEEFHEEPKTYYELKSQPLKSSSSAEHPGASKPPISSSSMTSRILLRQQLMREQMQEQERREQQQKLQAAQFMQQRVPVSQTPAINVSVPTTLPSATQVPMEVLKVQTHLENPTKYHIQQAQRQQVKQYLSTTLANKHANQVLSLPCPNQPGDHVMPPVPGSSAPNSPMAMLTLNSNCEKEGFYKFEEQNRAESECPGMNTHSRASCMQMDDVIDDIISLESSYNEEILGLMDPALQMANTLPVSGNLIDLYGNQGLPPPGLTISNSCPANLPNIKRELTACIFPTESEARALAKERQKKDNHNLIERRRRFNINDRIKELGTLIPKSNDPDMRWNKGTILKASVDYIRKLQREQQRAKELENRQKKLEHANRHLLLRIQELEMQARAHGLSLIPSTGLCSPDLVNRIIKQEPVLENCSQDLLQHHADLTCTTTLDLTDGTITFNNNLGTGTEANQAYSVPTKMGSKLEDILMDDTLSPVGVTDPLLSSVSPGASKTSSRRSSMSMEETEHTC

[11] = control 3'UTR Renilla luciferase suppression, dose response, counter-screen for Shn3 inhibitor project, cell-based, Clone20-Shn3RL, cherry-picked (AID 624133); format: functional
[12] = system: INS1; test: beta cell apoptosis inhibitors, cytokine rescue, dose response, luminescence, retest (AID 449756); format: functional, cell-based; conditions: Rattus norvegicus;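 note: cell death triggered by IL-1 beta plus TNF-alpha plus IFN-gamma mixture; protective hits raise ATP signal compared with cytokine alone wells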
[13] = biological target: T3, Heat shock factor protein 1 (Mus musculus, UniProt P38532); test: inhibition of MG132-induced HSE-luciferase signal, confirmation, cell-based, NIH3T3, luminescence, dose retest (AID 2382); format: functional;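 note: NIH3T3 fibroblasts with HSF1-driven luciferase reporter stressed by proteasome inhibitor MG132; luminescence from HSF1-driven luciferase expression after 8 hours of MG132 stress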
T3 sequence (P38532 whole entry): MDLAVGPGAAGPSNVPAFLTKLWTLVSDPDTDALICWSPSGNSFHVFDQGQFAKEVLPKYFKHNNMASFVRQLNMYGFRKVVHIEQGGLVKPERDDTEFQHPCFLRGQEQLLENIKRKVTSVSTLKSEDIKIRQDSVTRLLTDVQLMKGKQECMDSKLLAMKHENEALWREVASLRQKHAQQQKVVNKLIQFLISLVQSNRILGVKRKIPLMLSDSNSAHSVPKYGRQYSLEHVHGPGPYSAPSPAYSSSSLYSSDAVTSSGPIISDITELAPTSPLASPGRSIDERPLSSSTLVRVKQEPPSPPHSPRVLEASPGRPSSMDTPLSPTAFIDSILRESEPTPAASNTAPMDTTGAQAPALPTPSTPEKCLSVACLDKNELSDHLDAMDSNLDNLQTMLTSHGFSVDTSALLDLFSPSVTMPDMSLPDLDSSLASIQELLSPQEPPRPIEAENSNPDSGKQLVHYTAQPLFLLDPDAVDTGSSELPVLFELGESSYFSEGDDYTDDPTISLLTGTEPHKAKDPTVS

[14] = cytotoxicity toward NIH3T3 fibroblasts, dose response, counter-screen, cell-based, ATP luminescence, mouse fibroblasts (AID 2010); format: functional;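 note: cells exposed to compound for about 90 hours before reading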
[15] = inhibitors of intracellular T. cruzi replication, confirmation, NIH3T3 host cells, beta-gal luminescence (AID 2044); format: functional, cell-based;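 note: intracellular parasites grown in NIH/3T3 mouse fibroblasts as host cells; luminescent beta-galactosidase reporter signal from transgenic T. cruzi replicating inside host cells; inhibitors lower the luminescence signal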
[16] = system: Streptococcus sp. 'group A'; test: growth inhibition of control SK(-) GAS strain, dose response, counter-screen for streptokinase expression inhibitor project, luminescence, kanamycin, BacTiterGlo, confirmation (AID 1900); format: functional, organism-based
[17] = system: Streptococcus; test: Group A Streptococcus viability loss, dose response, counter-screen for streptokinase expression inhibitor project, luminescence, BacTiterGlo (AID 1915); format: functional, organism-based;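 note: potency for reduction of bacterial viability or growth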
[18] = biological target: T4, Streptokinase A (Streptococcus pyogenes serotype M1, UniProt P10520); test: S. pyogenes streptokinase expression inhibitors, potency, dose response, plasminogen activation absorbance, OD405 (AID 1914); format: functional, Streptococcus pyogenes M1 GAS;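 note: secreted streptokinase activity via plasminogen activation per viability signal from cell pellet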
T4 sequence (P10520 whole entry): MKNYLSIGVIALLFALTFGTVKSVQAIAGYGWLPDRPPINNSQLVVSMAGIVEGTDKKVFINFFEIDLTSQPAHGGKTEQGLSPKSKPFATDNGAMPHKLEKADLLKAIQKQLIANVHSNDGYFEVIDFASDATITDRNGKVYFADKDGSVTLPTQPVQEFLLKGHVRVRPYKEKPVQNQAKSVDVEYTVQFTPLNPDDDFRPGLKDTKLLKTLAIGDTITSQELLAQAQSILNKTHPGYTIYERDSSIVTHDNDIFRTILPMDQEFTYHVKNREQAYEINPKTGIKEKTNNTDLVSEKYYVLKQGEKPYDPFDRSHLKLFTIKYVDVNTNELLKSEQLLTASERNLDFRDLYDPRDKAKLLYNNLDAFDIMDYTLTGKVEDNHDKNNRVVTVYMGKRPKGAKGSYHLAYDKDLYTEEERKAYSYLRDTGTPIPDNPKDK

Cc1nc2ccccc2cc1OCc1ccc(Cl)cc1
IC50 [1]: 57.9 µM (inactive)

O=C(Nc1nc(=O)c2ccccc2s1)c1ccc(F)cc1
EC50 [2]: 0.107 µM (active)
EC50 [3]: > 120 µM (not active)

O=C(CN1CCN(c2ccccc2)CC1)Nc1ccccc1Cl
AC50 [4]: 6.68 µM (active)

Cc1ccc(N2NC(=O)/C(=C/C=C/c3ccco3)C2=O)cc1C
IC50 [5]: 13 µM (active)

O=C1C=C(c2ccc(Cl)c(C(F)(F)F)c2)C[C@@H](c2ccc(Cl)cc2)C1
CC50 [6]: 12.1 µM (active)
AC50 [7]: 3.41 µM (active)

CCn1c2ccccc2c2nnc(SCc3ccccc3)nc21
CC50 [6]: 34.6 µM (active)

Cc1cccc(NC(=O)CC2Nc3cccc4cccc(c34)NC2=O)c1 (stereo not drawn)
CC50 [6]: > 50 µM (active)
AC50 [8]: 12.6 µM (inconclusive)

COC(=O)CN(C#N)c1nc(N(C)C)nc(N(C)C)n1
IC50 [5]: 9.57 µM (active)

CN(C)c1ccc(CNc2ccc3c(c2)ncn3C)cc1
IC50 [9]: 22.1 µM (active)
AC50 [4]: 1.78 µM (active)

CCSc1ncc(/C=N/Nc2ccc([N+](=O)[O-])cc2)n1C
EC50 [3]: 0.793 µM (active)

COc1cccc(NC(=O)c2cc3c(=O)n4ccccc4nc3n(CC(C)C)c2=N)c1
AC50 [10]: 7.02 µM (active)

CC(=O)O[C@H]1C[C@@]2(C)[C@@H](C[C@@H](O)[C@H]3[C@@]4(C)CC[C@@H](O)[C@@H](C)[C@@H]4CC[C@@]32C)/C1=C(/CCC=C(C)C)C(=O)O
IC50 [9]: 31.6 µM (active)

OC(c1ccccc1)C(O)C(c1ccccc1)N1CCCCC1 (stereo not drawn)
AC50 [11]: 23.1 µM (active)

COC(=O)c1c(NC(=O)C2CC=CCC2C(=O)O)sc(C(N)=O)c1C (stereo not drawn)
AC50 [4]: 3.13 µM (active)

COC(=O)COc1ccc(-c2nn(C)c(=O)c3ccccc23)cc1
IC50 [5]: 2.56 µM (active)

CCC(Sc1nc(C)cc(C)n1)C(=O)NC1=NN=C(c2ccc(C)cc2)CS1 (stereo not drawn)
AC50 [12]: 4.8 µM (active)
EC50 [13]: 12.2 µM (active)

CCOC(=O)Cc1csc(NC(=O)/C=C/c2ccccc2Cl)n1
CC50 [6]: 18.9 µM (active)

CNc1nc(-c2ccc3c(c2)CCN3C(=O)c2cccc(F)c2)cs1
EC50 [2]: 1.41 µM (active)
EC50 [3]: 4.2 µM (active)

Cc1csc(/C(=N/OC(=O)c2ccco2)C(N)=O)n1
AC50 [4]: 0.252 µM (active)

CCOC(=O)c1cc(-c2csc(COc3ccc(Cl)cc3)n2)on1
IC50 [5]: < 0.1 µM (active)

O=C(COc1ccc(-c2ccccc2)cc1)Nc1cccnc1
IC50 [5]: 4.39 µM (active)

COc1ccc(OC)c(Nc2nc(N(C)c3ccccc3)nc(N)c2[N+](=O)[O-])c1
CC50 [6]: > 50 µM (active)
EC50 [14]: > 30 µM (not active)
EC50 [15]: 0.888 µM (active)

O=C(NCCCN1CCCC1=O)C(=O)Nc1cccc(F)c1
EC50 [2]: 0.233 µM (active)
EC50 [3]: > 120 µM (not active)

CCOc1ccc(-c2nnc(NC(=O)CCCOc3cccc(C)c3)o2)cc1
IC50 [5]: 5.86 µM (active)

CC(=O)c1cccc(Oc2cc(NN3CCCCC3)c([N+](=O)[O-])cc2[N+](=O)[O-])c1
AC50 [4]: 0.471 µM (active)

COc1cc(/C(C)=N/NC(=O)CSc2nnc(C)s2)ccc1O
IC50 [9]: 24.2 µM (active)

CCn1nnc(NC(=O)c2sc3ccccc3c2Cl)n1
IC50 [5]: 19.2 µM (active)

O=C(O)c1ccc(NC(=O)c2cn(-c3ccccc3)nc2-c2ccc(Br)cc2)cc1
CC50 [6]: 21 µM (active)

CN(C)S(=O)(=O)c1ccc(-c2cn3ccccc3n2)cc1
AC50 [4]: 2.05 µM (active)

Cc1cc(C=C2C(=O)N(C)C(=S)N(C)C2=O)c(C)n1-c1ccncc1
IC50 [9]: 50.2 µM (active)

COc1cc(C2OCC3C(c4ccc(OC5OC(CO)C(O)C(O)C5O)c(OC)c4)OCC23)ccc1O (stereo not drawn)
IC50 [9]: 21.3 µM (active)

Oc1c2c(nc3cc(-c4cccc(Cl)c4)nn13)CCCC2
CC50 [6]: 39.3 µM (active)

COc1ccc(N2CSC3=C(C#N)C(c4cc(OC)ccc4OC)CC(=O)N3C2)c(OC)c1 (stereo not drawn)
IC50 [9]: 63.1 µM (active)

COc1cccc2cc(C(=O)NCc3ccc(F)cc3)c(=N)oc12
IC50 [5]: > 50 µM (active)

CCN(CC)S(=O)(=O)c1ccc(NCC2COc3ccccc3O2)c([N+](=O)[O-])c1 (stereo not drawn)
CC50 [6]: 13 µM (active)

CCOC(=O)c1cc(-c2cccs2)nc2c1c(C)nn2-c1ccccn1
EC50 [16]: 13.1 µM (active)
EC50 [17]: 21.6 µM (active)
CC50 [6]: 16.4 µM (active)
AC50 [7]: 8.5 µM (active)
EC50 [18]: 122 µM (active)

COc1cc(NS(=O)(=O)c2ccc(NC(=O)NC3CCCCC3)cc2)nc(OC)n1
AC50 [4]: 3.49 µM (active)

NNC(=O)c1sc(-c2ccc(Cl)cc2)cc1N
AC50 [4]: 2.39 µM (active)

COc1cc(/C=N/NC(=O)c2ccc3[nH]cnc3c2)ccc1O
IC50 [9]: 7.38 µM (active)

Cc1ccc(O)c(CCc2ccc(O)cc2)n1
AC50 [4]: 2.64 µM (active)
